Reference: patent US11098027B2, “Therapeutic heterocyclic compounds” (Gilead Sciences, Inc., priority 2018, dated 2021)

Target: T1, IDO1 (Homo sapiens, UniProt P14902)
T1 construct: HeLa cells were treated with a test compound in the presence of IFNγ, which induces IDO1 expression; host or cells: H1-HeLa cells, IDO1 induced with IFNγ
Test: Cell-based (HeLa) assay for measurement of IDO1 inhibition (kynurenine levels in supernatant)
Conditions: H1-HeLa cells, IDO1 induced with IFNγ, 48 hour incubation, kynurenine read by absorbance at 480 nm; geometric mean of a minimum of four determinations
Method: Example B-1. Cell-Based (HeLa) Assay for Measurement of IDO1 Inhibition
To measure IDO1 inhibition in tissue culture, HeLa cells were treated with a test compound in the presence of IFNγ, which induces IDO1 expression. Following incubation, cell supernatants were assayed for kynurenine levels, an indicator of IDO1 activity.
The following day, the test compounds were added in DMSO (0.5% final) at various concentrations, and IDO1 was inducibly expressed by the addition of 50 uL/well of 50 ng/mL of INFγ (Peprotech #300-02) in cell plating media. As a positive control, 50 uL of the cell plating media without IFNγ was added to several wells. Following a 48 hour incubation, the plates were spun down at 1,200 RPM for 5 min at 10° C. 65 μL/well of the supernatant was then transferred to new 384-well plates (Thermo #262160) that contained 10 uL/well of 30% TCA (Sigma # TO699), and the plates were sealed and incubated at 60° C. for 30 min. The plates were then centrifuged for 15 min at 2,000 RPM at 10° C. 40 μL/well of the supernatant was transferred to new 384-well plates (Thermo #262160) and was reacted with 40 μL/well of 2% (w/v) p-dimethlyaminobenzaldehyde (Sigma #156417) in glacial acetic acid (Sigma #A6283). The reaction was incubated at room temperature for 10 min and absorbance at 480 nm was read using a PerkinElmer Envision plate reader.
Data in Table 1 were normalized based on positive (−IFNγ) and negative (+IFNγ) controls and EC50 values were calculated from the fit of the dose—response curves to a four-parameter equation. All EC50 values represent geometric mean values of a minimum of four determinations. These assays generally produced results within 2-fold of the reported mean

T1 sequence (P14902 whole entry): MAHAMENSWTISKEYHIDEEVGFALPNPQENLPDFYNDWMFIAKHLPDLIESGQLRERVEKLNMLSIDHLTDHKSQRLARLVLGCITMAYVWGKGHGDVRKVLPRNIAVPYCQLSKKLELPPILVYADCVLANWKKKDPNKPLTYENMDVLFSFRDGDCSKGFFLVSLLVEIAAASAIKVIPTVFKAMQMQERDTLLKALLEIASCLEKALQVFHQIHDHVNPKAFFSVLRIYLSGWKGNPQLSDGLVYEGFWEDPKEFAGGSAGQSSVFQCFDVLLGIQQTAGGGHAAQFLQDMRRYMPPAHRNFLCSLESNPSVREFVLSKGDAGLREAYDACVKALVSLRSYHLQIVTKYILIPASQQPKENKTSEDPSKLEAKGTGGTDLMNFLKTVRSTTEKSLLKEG

| SMILES | EC50 [µM] |
| --- | --- |
| CC1(C)C(=O)N(c2ncccn2)c2cccc(-c3ccc(C(F)(F)F)c(C(=O)Nc4ccc(F)cc4)c3)c21 [Compound 1, 5-(3,3-dimethyl-2-oxo-1-(pyrimidin-2-yl)indolin-4-yl)-N-(4-fluorophenyl)-2-(trifluoromethyl)benzamide] | 0.01 |
| CC1(C)C(=O)N(c2ccccn2)c2cccc(-c3ccc(C(F)(F)F)c(C(=O)Nc4ccc(F)cc4)c3)c21 [Example 2, 5-(3,3-dimethyl-2-oxo-1-(pyridin-2-yl)indolin-4-yl)-N-(4-fluorophenyl)-2-(trifluoromethyl)benzamide] | 0.011 |
| CC1(C)C(=O)N(c2ccncn2)c2cccc(-c3ccc(C(F)(F)F)c(C(=O)Nc4ccc(F)cc4)c3)c21 [Example 3, 5-(3,3-dimethyl-2-oxo-1-(pyrimidin-4-yl)indolin-4-yl)-N-(4-fluorophenyl)-2-(trifluoromethyl)benzamide] | 0.011 |
| CC1(C)C(=O)N(c2cnccn2)c2cccc(-c3ccc(C(F)(F)F)c(C(=O)Nc4ccc(F)cc4)c3)c21 [Example 4, 5-(3,3-dimethyl-2-oxo-1-(pyrazin-2-yl)indolin-4-yl)-N-(4-fluorophenyl)-2-(trifluoromethyl)benzamide] | 0.011 |
| CC1(C)C(=O)N(c2cc[nH]n2)c2cccc(-c3ccc(C(F)(F)F)c(C(=O)Nc4ccc(F)cc4)c3)c21 [Example 5, 5-(3,3-dimethyl-2-oxo-1-(1H-pyrazol-3-yl)indolin-4-yl)-N-(4-fluorophenyl)-2-(trifluoromethyl)benzamide] | 0.013 |
| CC1(C)C(=O)N(c2cccnc2)c2cccc(-c3ccc(C(F)(F)F)c(C(=O)Nc4ccc(F)cc4)c3)c21 [Example 7, 5-(3,3-dimethyl-2-oxo-1-(pyridin-3-yl)indolin-4-yl)-N-(4-fluorophenyl)-2-(trifluoromethyl)benzamide] | 0.019 |
| CC1(C)C(=O)N(c2ccncc2)c2cccc(-c3ccc(C(F)(F)F)c(C(=O)Nc4ccc(F)cc4)c3)c21 [Example 8, 5-(3,3-dimethyl-2-oxo-1-(pyridin-4-yl)indolin-4-yl)-N-(4-fluorophenyl)-2-(trifluoromethyl)benzamide] | 0.024 |
| Cc1ccc(-c2cccc3c2C(C)(C)C(=O)N3c2ncccn2)cc1C(=O)Nc1ccc(F)cc1 [Example 9, 5-(3,3-dimethyl-2-oxo-1-(pyrimidin-2-yl)indolin-4-yl)-N-(4-fluorophenyl)-2-methylbenzamide] | 0.033 |
| Cc1ccc(-c2cccc3c2C(C)(C)C(=O)N3c2ccccn2)cc1C(=O)Nc1ccc(F)cc1 [Example 10, 5-(3,3-dimethyl-2-oxo-1-(pyridin-2-yl)indolin-4-yl)-N-(4-fluorophenyl)-2-methylbenzamide] | 0.034 |
| CC1(C)C(=O)N(c2c[nH]cn2)c2cccc(-c3ccc(C(F)(F)F)c(C(=O)Nc4ccc(F)cc4)c3)c21 [Example 11, 5-(1-(1H-imidazol-4-yl)-3,3-dimethyl-2-oxoindolin-4-yl)-N-(4-fluorophenyl)-2-(trifluoromethyl)benzamide] | 0.041 |
| Cc1ncc(-c2cccc3c2C(C)(C)C(=O)N3c2ccccn2)cc1C(=O)Nc1ccc(F)cc1 [Example 12, 5-(3,3-dimethyl-2-oxo-1-(pyridin-2-yl)indolin-4-yl)-N-(4-fluorophenyl)-2-methylnicotinamide] | 0.066 |
| Cc1ncc(-c2cccc3c2C(C)(C)C(=O)N3c2cccnc2)cc1C(=O)Nc1ccc(F)cc1 [Example 13, 5-(3,3-dimethyl-2-oxo-1-(pyridin-3-yl)indolin-4-yl)-N-(4-fluorophenyl)-2-methylnicotinamide] | 0.094 |
| Cc1ncc(-c2cccc3c2C(C)(C)C(=O)N3c2ncccn2)cc1C(=O)Nc1ccc(F)cc1 [Example 14, 5-(3,3-dimethyl-2-oxo-1-(pyrimidin-2-yl)indolin-4-yl)-N-(4-fluorophenyl)-2-methylnicotinamide] | 0.105 |
| Cc1ncc(-c2cccc3c2C(C)(C)C(=O)N3c2cnccn2)cc1C(=O)Nc1ccc(F)cc1 [Example 15, 5-(3,3-dimethyl-2-oxo-1-(pyrazin-2-yl)indolin-4-yl)-N-(4-fluorophenyl)-2-methylnicotinamide] | 0.522 |
| CC1(C)C(=O)N(Cc2ncccn2)c2cccc(-c3ccc(C(F)(F)F)c(C(=O)Nc4ccc(F)cc4)c3)c21 [Example 16, 5-(3,3-dimethyl-2-oxo-1-(pyrimidin-2-ylmethyl)indolin-4-yl)-N-(4-fluorophenyl)-2-(trifluoromethyl)benzamide] | 0.81 |
| CC1(C)C(=O)N(c2ccccn2)c2nccc(-c3ccc(C(F)(F)F)c(C(=O)Nc4ccc(F)cc4)c3)c21 [Example 17, 5-(3,3-dimethyl-2-oxo-1-(pyridin-2-yl)-2,3-dihydro-1H-pyrrolo[2,3-b]pyridin-4-yl)-N-(4-fluorophenyl)-2-(trifluoromethyl)benzamide] | 0.013 |
| CC1(C)C(=O)N(c2cn[nH]c2)c2cccc(-c3ccc(C(F)(F)F)c(C(=O)Nc4ccc(F)cc4)c3)c21 [Example 18, 5-(3,3-dimethyl-2-oxo-1-(1H-pyrazol-4-yl)indolin-4-yl)-N-(4-fluorophenyl)-2-(trifluoromethyl)benzamide] | 0.016 |
| CC1(C)C(=O)N(c2cccnc2)c2nccc(-c3ccc(C(F)(F)F)c(C(=O)Nc4ccc(C#N)cn4)c3)c21 [Example 19, N-(5-cyanopyridin-2-yl)-5-(3,3-dimethyl-2-oxo-1-(pyridin-3-yl)-2,3-dihydro-1H-pyrrolo[2,3-b]pyridin-4-yl)-2-(trifluoromethyl)benzamide] | 0.033 |
| CC1(C)C(=O)N(c2cncc(F)c2)c2cccc(-c3cnc(C(F)(F)F)c(C(=O)Nc4ccc(F)cc4)c3)c21 [Example 20, N-(4-fluorophenyl)-5-(1-(5-fluoropyridin-3-yl)-3,3-dimethyl-2-oxoindolin-4-yl)-2-(trifluoromethyl)nicotinamide] | 0.036 |
| CC1(C)C(=O)N(c2ncccn2)c2cccc(-c3ccc(C(F)(F)F)c(C(=O)Nc4cccnc4)c3)c21 [Example 21, 5-(3,3-dimethyl-2-oxo-1-(pyrimidin-2-yl)indolin-4-yl)-N-(pyridin-3-yl)-2-(trifluoromethyl)benzamide] | 0.098 |
| Cc1ccc(-c2cccc3c2[nH]c(=O)n3-c2cccc(F)c2F)cc1C(=O)Nc1ccc(F)cc1 [Example 22, 5-(1-(2,3-difluorophenyl)-2-oxo-2,3-dihydro-1H-benzo[d]imidazol-4-yl)-N-(4-fluorophenyl)-2-methylbenzamide] | 0.062 |
| Cn1cc(N2C(=O)C(C)(C)c3c(-c4ccc(C(F)(F)F)c(C(=O)Nc5ccc(F)cc5)c4)cccc32)cn1 [Example 23, 5-(3,3-dimethyl-1-(1-methyl-1H-pyrazol-4-yl)-2-oxoindolin-4-yl)-N-(4-fluorophenyl)-2-(trifluoromethyl)benzamide] | 0.311 |
| CC1(C)C(=O)N(c2ncccn2)c2cccc(-c3ccc(OC(F)(F)F)c(C(=O)Nc4ccc(F)cc4)c3)c21 [Example 24, 5-(3,3-dimethyl-2-oxo-1-(pyrimidin-2-yl)indolin-4-yl)-N-(4-fluorophenyl)-2-(trifluoromethoxy)benzamide] | 0.048 |
| CC1(C)C(=O)N(c2ncccn2)c2cccc(-c3cc(C(=O)Nc4ccc(F)cc4)c(C(F)(F)F)cn3)c21 [Example 25, 2-(3,3-dimethyl-2-oxo-1-(pyrimidin-2-yl)indolin-4-yl)-N-(4-fluorophenyl)-5-(trifluoromethyl)isonicotinamide] | 0.039 |
| CC1(C)C(=O)N(c2ncccn2)c2cccc(-c3ccc(C(F)(F)F)c(C(=O)Nc4ccncc4)c3)c21 [Example 26, 5-(3,3-dimethyl-2-oxo-1-(pyrimidin-2-yl)indolin-4-yl)-N-(pyridin-4-yl)-2-(trifluoromethyl)benzamide] | 0.044 |
| CC1(C)C(=O)N(c2ccccn2)c2nccc(-c3ccc(C(F)(F)F)c(C(=O)Nc4ccc(F)c(F)c4)c3)c21 [Example 27, N-(3,4-difluorophenyl)-5-(3,3-dimethyl-2-oxo-1-(pyridin-2-yl)-2,3-dihydro-1H-pyrrolo[2,3-b]pyridin-4-yl)-2-(trifluoromethyl)benzamide] | 0.063 |
| CC1(C)C(=O)N(c2ccccn2)c2nccc(-c3ccc(C(F)(F)F)c(C(=O)Nc4ccc(F)cn4)c3)c21 [Example 28, 5-(3,3-dimethyl-2-oxo-1-(pyridin-2-yl)-2,3-dihydro-1H-pyrrolo[2,3-b]pyridin-4-yl)-N-(5-fluoropyridin-2-yl)-2-(trifluoromethyl)benzamide] | 0.036 |
| O=C(Nc1ccc(F)cc1)c1cc(-c2cccc3c2[nH]c(=O)n3-c2ncccn2)ccc1C(F)(F)F [Example 29, N-(4-fluorophenyl)-5-(2-oxo-1-(pyrimidin-2-yl)-2,3-dihydro-1H-benzo[d]imidazol-4-yl)-2-(trifluoromethyl)benzamide] | 0.179 |
| CC1(C)C(=O)N(c2ncccn2)c2cccc(-c3ccc(C(F)(F)F)c(C(=O)Nc4ccc(F)c(F)c4)c3)c21 [Example 30, N-(3,4-difluorophenyl)-5-(3,3-dimethyl-2-oxo-1-(pyrimidin-2-yl)indolin-4-yl)-2-(trifluoromethyl)benzamide] | 0.024 |
